{"source": "patent US8314215B2", "about": "“Mild chemically cleavable linker system” (The Board of Trustees of the Leland Stanford Junior …, priority 2006, dated 2012)", "key": {"Cathepsin Z": {"biological_target": "T1, Cathepsin Z (Rattus norvegicus, UniProt Q9R1T3)", "T1 construct": "from tissue; host or cells: rat liver homogenate", "T1 sequence (Q9R1T3 64-306)": "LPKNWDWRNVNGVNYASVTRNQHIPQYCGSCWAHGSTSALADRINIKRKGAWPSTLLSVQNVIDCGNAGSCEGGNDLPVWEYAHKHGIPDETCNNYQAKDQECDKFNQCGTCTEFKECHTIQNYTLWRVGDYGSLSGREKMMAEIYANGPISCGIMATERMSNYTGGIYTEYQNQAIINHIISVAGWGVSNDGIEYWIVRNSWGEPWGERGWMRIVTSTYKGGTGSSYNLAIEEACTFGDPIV", "assay": "Proteases targeted by SV1 after chemoselective release from immobilized streptavidin, LC-MS/MS", "assay_type": "biochemical", "conditions": "rat liver homogenate, SV1 10 μM 2 h", "experimental": "(§1) Rat liver homogenate (20 mg of total protein) in reaction buffer was incubated with SV1 (10 μM) for 2 h. Unreacted probe was removed by filtration over a PD10 column (Amersham Bioscience) and the eluate (in PBS buffer) was shaken with immobilized streptavidin slurry (20 μL) for 1 h. The streptavidin beads were subsequently washed with PBS buffer containing 1M NaCl, 0.1% SDS and 10% EtOH (3× each). Proteases labeled by the probe were cleaved off with Na2S2O4 using the above-described procedure. The pooled supernatant was denatured by incubating with 1 volume of 12 M urea. Next, disulfide bonds were reduced with DTT (10 mM, 60 minutes) and free cysteines were capped with iodoacetamide (40 mM, 60 minutes). Unreacted iodoacetamide was neutralized by addition of an equal amount of DTT and the concentration of urea was lowered to 2 M by addition of water. Trypsin digestion was performed overnight at 37° C. (0.1 μg of trypsin). Digestion was stopped by addition of formic acid (5% final concentration) and digested samples were desalted using a C18 Zip-Tip (Millipore) prior to LC/MS-MS analysis. Data was analyzed by the Sequest algorithm (Novatia) and evaluated by Scaffold (Proteome Software Inc.). Peptides with probability value>95% (in Scaffold) were considered positive hits.\n(§2) Although the optimized release of probe-labeled proteins from streptavidin using dithionite is slightly lower in efficiency than under denaturing conditions, this method is likely to result in less background signals leading to easier identification of the target proteases. In addition the direct on-bead cleavage method using a mass spectrometry-compatible buffer allows direct in solution digestion of samples followed by MS analysis. To confirm these issues we analyzed the samples in FIG. 2 by direct solution digestion with trypsin followed by LC-MS/MS analysis of all peptide products. This analysis identified multiple peptides from each of the expected cathepsin proteases without any contamination by background proteins (Table 1). […] A more comprehensive and detailed analysis is reported in Fonović et al., Proteomic evaluation of chemically cleavable activity based probes,” Mol. and Cell Proteomics Manuscript M700-124-MCP200 (published online Jul. 5, 2007)."}, "Cathepsin H": {"biological_target": "T2, Cathepsin H (Rattus norvegicus, UniProt P00786)", "T2 construct": "from tissue; host or cells: rat liver homogenate", "T2 sequence (P00786 96-333)": "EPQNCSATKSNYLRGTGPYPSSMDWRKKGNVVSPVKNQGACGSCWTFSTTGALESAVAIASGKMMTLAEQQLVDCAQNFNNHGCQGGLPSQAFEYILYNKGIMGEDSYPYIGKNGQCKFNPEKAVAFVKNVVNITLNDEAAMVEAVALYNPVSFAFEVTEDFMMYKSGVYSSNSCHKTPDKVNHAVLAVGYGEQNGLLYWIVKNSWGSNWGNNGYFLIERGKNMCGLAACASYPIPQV", "assay": "Proteases targeted by SV1 after chemoselective release from immobilized streptavidin, LC-MS/MS", "assay_type": "biochemical", "conditions": "rat liver homogenate, SV1 10 μM 2 h", "experimental": "as §1, §2"}, "Cathepsin B": {"biological_target": "T3, Cathepsin B (Rattus norvegicus, UniProt P00787)", "T3 construct": "from tissue; host or cells: rat liver homogenate", "T3 sequence (P00787 80-333)": "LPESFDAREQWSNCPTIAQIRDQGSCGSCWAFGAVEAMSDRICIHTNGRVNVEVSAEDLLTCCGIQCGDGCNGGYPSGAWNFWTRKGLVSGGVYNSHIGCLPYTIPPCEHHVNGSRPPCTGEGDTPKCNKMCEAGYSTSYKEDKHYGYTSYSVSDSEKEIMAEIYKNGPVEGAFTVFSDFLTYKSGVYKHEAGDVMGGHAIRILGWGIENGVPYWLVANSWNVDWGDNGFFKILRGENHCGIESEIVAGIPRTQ", "assay": "Proteases targeted by SV1 after chemoselective release from immobilized streptavidin, LC-MS/MS", "assay_type": "biochemical", "conditions": "rat liver homogenate, SV1 10 μM 2 h", "experimental": "as §1, §2"}, "Cathepsin C": {"biological_target": "T4, Cathepsin C (Rattus norvegicus, UniProt P80067)", "T4 construct": "from tissue; host or cells: rat liver homogenate", "T4 sequence (P80067 25-462)": "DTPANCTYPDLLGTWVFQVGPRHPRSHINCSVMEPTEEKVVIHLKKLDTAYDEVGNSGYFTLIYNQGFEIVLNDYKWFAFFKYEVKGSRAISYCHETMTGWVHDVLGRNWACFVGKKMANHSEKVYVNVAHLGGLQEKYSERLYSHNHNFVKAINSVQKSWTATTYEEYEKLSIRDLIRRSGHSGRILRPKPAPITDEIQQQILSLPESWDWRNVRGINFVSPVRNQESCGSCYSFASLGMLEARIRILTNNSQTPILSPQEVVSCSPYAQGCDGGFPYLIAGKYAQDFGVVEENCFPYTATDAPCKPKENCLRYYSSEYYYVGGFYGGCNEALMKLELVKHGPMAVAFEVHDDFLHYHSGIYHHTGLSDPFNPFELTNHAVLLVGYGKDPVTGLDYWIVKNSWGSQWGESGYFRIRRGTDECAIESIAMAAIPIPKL", "assay": "Proteases targeted by SV1 after chemoselective release from immobilized streptavidin, LC-MS/MS", "assay_type": "biochemical", "conditions": "rat liver homogenate, SV1 10 μM 2 h", "experimental": "as §1, §2"}, "[1]": {"assay": "Cleavage of probe by incubation with Na2S2O4, LC-MS analysis", "assay_type": "physicochemical", "conditions": "100 mM Na2S2O4, after 30 minutes", "experimental": "We initially tested the cleavage of SV1 (shown in FIG. 3) by incubation with 100 mM Na2S2O4. After 30 minutes full cleavage of SV1 into the two aniline fragments 3 and 4 (FIG. 3) was observed using LC-MS analysis."}}, "data": [{"smiles": "CCOC(=O)[C@H]1O[C@@H]1C(=O)N[C@@H](CC(C)C)C(=O)N[C@@H](Cc1ccc(O)cc1)C(=O)NCCc1ccc(O)c(N=Nc2ccc(C(=O)N[C@@H](CCCCNC(=O)CCCC[C@@H]3SC[C@@H]4NC(=O)N[C@@H]43)C(N)=O)cc2)c1", "note": "[SV1]", "values": [{"measurement": "Number of Identified peptides", "setting": "Cathepsin Z", "value": 4}, {"measurement": "Sequence coverage", "setting": "Cathepsin Z", "value": 32, "unit": "%"}, {"measurement": "Number of Identified peptides", "setting": "Cathepsin H", "value": 5}, {"measurement": "Sequence coverage", "setting": "Cathepsin H", "value": 29, "unit": "%"}, {"measurement": "Number of Identified peptides", "setting": "Cathepsin B", "value": 2}, {"measurement": "Sequence coverage", "setting": "Cathepsin B", "value": 8, "unit": "%"}, {"measurement": "Number of Identified peptides", "setting": "Cathepsin C", "value": 3}, {"measurement": "Sequence coverage", "setting": "Cathepsin C", "value": 16, "unit": "%"}, {"measurement": "cleavage into the two aniline fragments 3 and 4", "setting": "[1]", "value": "full cleavage"}]}]}
